{"source": "patent US20160158200A1", "about": "“Combinations of Hepatitis C Virus Inhibitors” (priority 2013, published 2016)", "data": [{"system": "HCV genotype-1a variant with glutamine 30 changed to glutamate in the NS5A protein", "assay_type": "cell-based", "conditions": "test compound titrated with BMS-790052 fixed at 200 nM; genotype 1a Q30E replicon", "how_it_was_run": "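Synergy was assessed by combining several fixed amounts of an NS5A-targeting compound with a titration of the second compound of interest.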", "units": {"Fold-Synergistic 1a (Q30E)": "fold"}, "values": [{"smiles": "CC(C)(Oc1ccccc1F)C(=O)N[C@H](c1nc(-c2ccc(-c3ccc(-c4c[nH]c([C@@H](NC(=O)C(C)(C)Oc5ccccc5F)C(C)(C)C)n4)cc3)cc2)c[nH]1)C(C)(C)C", "note": "[Compound Y-4]", "Fold-Synergistic 1a (Q30E)": ">100"}, {"smiles": "COCC(C)(C)C(=O)N[C@H](c1ncc(-c2ccc(-c3ccc(-c4cnc([C@@H](NC(=O)C(C)(C)COC)C(C)C)[nH]4)cc3)cc2)[nH]1)C(C)C", "note": "[Compound P-70]", "Fold-Synergistic 1a (Q30E)": ">100"}, {"smiles": "CC(C)[C@H](NC(=O)C1(C(F)(F)F)CCCC1)c1ncc(-c2ccc(-c3ccc(-c4cnc([C@@H](NC(=O)C5(C(F)(F)F)CCCC5)C(C)C)[nH]4)cc3)cc2)[nH]1", "note": "[Compound P-80]", "Fold-Synergistic 1a (Q30E)": ">100"}, {"smiles": "CC(C)(C)[C@H](NC(=O)C1CCC(=O)CC1)c1nc(-c2ccc(-c3ccc(-c4c[nH]c([C@@H](NC(=O)C5CCC(=O)CC5)C(C)(C)C)n4)cc3)cc2)c[nH]1", "note": "[Compound W-173]", "Fold-Synergistic 1a (Q30E)": ">100"}, {"smiles": "CC(C)[C@H](NC(=O)C(C)(C)N1C[C@@H](C)O[C@@H](C)C1)c1nc(-c2ccc(-c3ccc(-c4c[nH]c([C@@H](NC(=O)C(C)(C)N5C[C@@H](C)O[C@@H](C)C5)C(C)C)n4)cc3)cc2)c[nH]1", "note": "[Compound W-161]", "Fold-Synergistic 1a (Q30E)": ">100"}, {"smiles": "CC(C)(C)[C@H](NC(=O)C1(CF)CC1)c1nc(-c2ccc(-c3ccc(-c4c[nH]c([C@@H](NC(=O)C5(CF)CC5)C(C)(C)C)n4)cc3)cc2)c[nH]1", "note": "[Compound P-14]", "Fold-Synergistic 1a (Q30E)": ">100"}, {"smiles": "CC(C)(C)OC(=O)NC1(C(=O)N[C@H](c2nc(-c3ccc(-c4ccc(-c5c[nH]c([C@@H](NC(=O)C6(NC(=O)OC(C)(C)C)CC6(F)F)C(C)(C)C)n5)cc4)cc3)c[nH]2)C(C)(C)C)CC1(F)F", "note": "(single isomer, unassigned) [Compound W-14]", "Fold-Synergistic 1a (Q30E)": ">100"}, {"smiles": "CC(C)[C@H](NC(=O)c1c(F)cccc1Cl)c1ncc(-c2ccc(-c3ccc(-c4cnc([C@@H](NC(=O)c5c(F)cccc5Cl)C(C)C)[nH]4)cc3)cc2)[nH]1", "note": "[Compound S-6]", "Fold-Synergistic 1a (Q30E)": ">100"}, {"smiles": "CC(C)(C)[C@H](NC(=O)C(C)(O)C1(C)CC1)c1nc(-c2ccc(-c3ccc(-c4c[nH]c([C@@H](NC(=O)C(C)(O)C5(C)CC5)C(C)(C)C)n4)cc3)cc2)c[nH]1", "note": "(stereo partly drawn) [Compound L-93b]", "Fold-Synergistic 1a (Q30E)": ">100"}, {"smiles": "CCCC(=O)N[C@H](c1ncc(-c2ccc(-c3ccc(-c4cnc([C@@H](NC(=O)CCC)C(C)C)[nH]4)cc3)cc2)[nH]1)C(C)C", "note": "[Compound S-33]", "Fold-Synergistic 1a (Q30E)": ">100"}, {"smiles": "CC1([C@H](NC(=O)C(C)(C)C(C)(C)O)c2ncc(-c3ccc(-c4ccc(-c5cnc([C@@H](NC(=O)C(C)(C)C(C)(C)O)C6(C)CC6)[nH]5)cc4)cc3)[nH]2)CC1", "note": "[Compound B148]", "Fold-Synergistic 1a (Q30E)": ">100"}, {"smiles": "COC(=O)N1C[C@H](F)C[C@@]1(C)C(=O)N[C@H](c1nc(-c2ccc(-c3ccc(-c4c[nH]c([C@@H](NC(=O)[C@]5(C)C[C@@H](F)CN5C(=O)OC)C(C)(C)C)n4)cc3)cc2)c[nH]1)C(C)(C)C", "note": "[Compound W-210]", "Fold-Synergistic 1a (Q30E)": ">100"}, {"smiles": "CC(C)[C@H](NC(=O)C12CC3CC(CC(C3)C1)C2)c1ncc(-c2ccc(-c3ccc(-c4cnc([C@@H](NC(=O)C56CC7CC(CC(C7)C5)C6)C(C)C)[nH]4)cc3)cc2)[nH]1", "note": "[Compound P-60]", "Fold-Synergistic 1a (Q30E)": ">100"}, {"smiles": "CC(C)[C@H](NC(=O)C(C)(C)C)c1ncc(-c2ccc(-c3ccc(-c4cnc([C@@H](NC(=O)C(C)(C)C)C(C)C)n4C)cc3)cc2)n1C", "note": "[Compound B-205]", "Fold-Synergistic 1a (Q30E)": "<10"}, {"smiles": "CC(C)[C@H](NC(=O)C(=O)c1ncccc1F)c1ncc(-c2ccc(-c3ccc(-c4cnc([C@@H](NC(=O)C(=O)c5ncccc5F)C(C)C)[nH]4)cc3)cc2)[nH]1", "note": "[Compound P-120]", "Fold-Synergistic 1a (Q30E)": ">100"}, {"smiles": "CC(C)[C@H](N[S+]([O-])C(C)(C)C)c1ncc(-c2ccc(-c3ccc(-c4cnc([C@@H](N[S+]([O-])C(C)(C)C)C(C)C)[nH]4)cc3)cc2)[nH]1", "note": "(some centres unmarked) [Compound Y-61]", "Fold-Synergistic 1a (Q30E)": "<10"}, {"smiles": "CC(C)(C)OC(=O)N1CCCC[C@H]1C(=O)N[C@H](c1nc(-c2ccc(-c3ccc(-c4c[nH]c([C@@H](NC(=O)[C@@H]5CCCCN5C(=O)OC(C)(C)C)C(C)(C)C)n4)cc3)cc2)c[nH]1)C(C)(C)C", "note": "[Compound L-17]", "Fold-Synergistic 1a (Q30E)": ">100"}, {"smiles": "CC(C)[C@H](NC(=O)CC1CCOCC1)c1ncc(-c2ccc(-c3ccc(-c4cnc([C@@H](NC(=O)CC5CCOCC5)C(C)C)[nH]4)cc3)cc2)[nH]1", "note": "[Compound P-58]", "Fold-Synergistic 1a (Q30E)": ">10"}, {"smiles": "CC(C)(C)[C@H](NC(=O)C1CCC(F)(F)CC1)c1ncc(-c2ccc(-c3ccc4c(ccc5nc([C@@H](NC(=O)C6CCC(F)(F)CC6)C(C)(C)C)[nH]c54)c3)cc2)[nH]1", "note": "[Compound B17]", "Fold-Synergistic 1a (Q30E)": ">100"}, {"smiles": "CC(C)(C)[C@H](NC(=O)C1(NC(=O)CC2CC2)CCCCC1)c1nc(-c2ccc(-c3ccc(-c4c[nH]c([C@@H](NC(=O)C5(NC(=O)CC6CC6)CCCCC5)C(C)(C)C)n4)cc3)cc2)c[nH]1", "note": "[Compound W-276]", "Fold-Synergistic 1a (Q30E)": ">100"}, {"smiles": "C=C1CCC(C(=O)N[C@H](c2nc(-c3ccc(-c4ccc(-c5c[nH]c([C@@H](NC(=O)C6CCC(=C)CC6)C(C)(C)C)n5)cc4)cc3)c[nH]2)C(C)(C)C)CC1", "note": "[Compound N-118]", "Fold-Synergistic 1a (Q30E)": ">100"}, {"smiles": "CC(C)CC(=O)N[C@H](c1nc(-c2ccc(-c3ccc(-c4nc([C@@H](NC(=O)CC(C)C)C(C)C)[nH]c4Cl)cc3)cc2)c(Cl)[nH]1)C(C)C", "note": "[Compound P-48]", "Fold-Synergistic 1a (Q30E)": ">100"}, {"smiles": "CC(C)(NC(=O)CC(F)(F)F)C(=O)N[C@H](c1nc(-c2ccc(-c3ccc(-c4c[nH]c([C@@H](NC(=O)C(C)(C)NC(=O)CC(F)(F)F)C(C)(C)C)n4)cc3)cc2)c[nH]1)C(C)(C)C", "note": "[Compound L-144]", "Fold-Synergistic 1a (Q30E)": ">100"}, {"smiles": "CC1(O)CC(C(=O)N[C@H](c2nc(-c3ccc(-c4ccc(-c5c[nH]c([C@@H](NC(=O)C6CC(C)(O)C6)C(C)(C)C)n5)cc4)cc3)c[nH]2)C(C)(C)C)C1", "note": "(single isomer, unassigned) [Compound W-170]", "Fold-Synergistic 1a (Q30E)": ">100"}, {"smiles": "CC(C)(C)[C@H](NC(=O)[C@H]1C[C@@H]2CC(F)(F)C[C@@H]2C1)c1nc(-c2ccc(-c3ccc(-c4c[nH]c([C@@H](NC(=O)[C@H]5C[C@@H]6CC(F)(F)C[C@@H]6C5)C(C)(C)C)n4)cc3)cc2)c[nH]1", "note": "[Compound P-42]", "Fold-Synergistic 1a (Q30E)": ">100"}, {"smiles": "CC(C)(C(=O)N[C@H](c1nc(-c2ccc(-c3ccc(-c4cnc([C@@H](NC(=O)C(C)(C)C5CCCO5)C(C)(C)C)[nH]4)cc3)cc2)c[nH]1)C(C)(C)C)C1CCCO1", "note": "(single isomer, unassigned) [Compound B-171]", "Fold-Synergistic 1a (Q30E)": ">100"}, {"smiles": "CC(C)(C(=O)N[C@H](c1nc(-c2ccc(-c3ccc(-c4c[nH]c([C@@H](NC(=O)C(C)(C)C(O)c5ccccc5)C(C)(C)C)n4)cc3)cc2)c[nH]1)C(C)(C)C)C(O)c1ccccc1", "note": "(single isomer, unassigned) [Compound N-127B]", "Fold-Synergistic 1a (Q30E)": ">100"}, {"smiles": "CC(C)[C@H](NC(=O)C(=O)C1(O)CCC(F)(F)CC1)c1ncc(-c2ccc(-c3ccc(-c4cnc([C@@H](NC(=O)C(=O)C5(O)CCC(F)(F)CC5)C(C)C)[nH]4)cc3)cc2)[nH]1", "note": "[Compound P-125]", "Fold-Synergistic 1a (Q30E)": ">100"}, {"smiles": "CC(C)(C(=O)N[C@H](c1nc(-c2ccc(-c3ccc(-c4cnc([C@@H](NC(=O)C(C)(C)C5CC5)C(C)(C)C)[nH]4)cc3)cc2)c[nH]1)C(C)(C)C)C1CC1", "note": "[Compound B-167]", "Fold-Synergistic 1a (Q30E)": ">100"}]}]}
